Reference: patent US20100029544A1, “Composition” (priority 2006, published 2010)
Values after ≈ are worked out from the molar mass of the structure shown.

What was measured:
[1] = Loading of griseofulvin into QCPAA aggregates (solubilisation); format: physicochemical; settings: thermodynamic from solid; excess drug sonicated in distilled water, filtered; read-out: intrinsic (aqueous) solubility of griseofulvin
Description: Drug loading was then achieved by probe sonication of the drugs in the presence of polymer aggregates in distilled water. Polymer, drug solutions with varying polymer: drug weight ratios were prepared. […] The aqueous solubility of griseofulvin was determined by sonicating excess drugs in distilled water. The solution was then filtered and analysed as described earlier. A griseofulvin calibration curve was prepared using various standard solutions (1-30 μgml^−1, R^2=0.993).

Caco-2 cells = test: Intracellular localisation study (PK4 fluorescence microscopy); format: cell-based, human; settings: PK4 20 μM alone, 37° C.
Description: The intracellular polymer uptake was studied using an experimental anticancer drug named PK4 (bis-naphthalimidopropyl spermine). […] Due to the inherent fluorescence of PK4, the uptake of PK4 into cells can be visualised using Fluorescence Microscopy. Caco-2 cells (human colorectal cancer cells) were maintained in Dulbecco's Modified Eagle's Medium (DMEM) supplemented with 10% foetal calf serum (FCS), 1% non-essential amino acids and 1% L-glutamine and 1% penicillin/streptomycin at 10% CO2, 95% humidity and 37° C. […] The controls were 1) polymer only solutions (0.1 μml^−1), 2) PK4 only solutions (20 μM) and 3) medium. At specific time intervals the cells were photographed using a Leica DMRB fluorescence microscopy (Leica Microsystems, UK). The experiment above was repeated with the cells incubated at 4° C. instead of 37° C.

[2] = Loading of propofol into QCPAA or CePAA (solubilisation)
Description: Drug loading was carried out as described above. To determine the concentration of encapsulated drug, the solutions were filtered (0.45 μm) and the filtrates were dissolved in methanol and subsequently analysed using an ultraviolet-visible spectrophotometer at the wavelength of 272 nm. A propofol calibration graph was prepared using various standard solutions (0.012-0.16 mgml^−1, R^2=0.998). The filtered formulations were sized using photon correlation spectroscopy and imaged by scanning electron microscopy (SEM).

`COC1=CC(=O)C[C@@H](C)[C@]12Oc1c(Cl)c(OC)cc(OC)c1C2=O` [griseofulvin] gave a solubility [1] of 48.3 ± 1 µg/mL (≈ 137 µM).

For `O=C1c2cccc3cccc(c23)C(=O)N1CCCNCCCNCCCCNCCCNCCCN1C(=O)c2cccc3cccc(c23)C1=O` [PK4, bis-naphthalimidopropyl spermine], the “time until fluorescence was detected in cells” value (Caco-2 cells) was 4.5 h.

Work on `CC(C)c1cccc(C(C)C)c1O` [propofol] yielded a solubility [2] of 112 µg/mL (≈ 628 µM).
